The source of these data is US8288428B2, “Compounds as cannabinoid receptor ligands” (Abbott Laboratories, priority 2009, dated 2012).

Broadly, the Ki is the equilibrium dissociation constant of an inhibitor or competing ligand from its target.

Test [1] has as its system rodent models of pain. Conditions: rodent models of neuropathic, incisional, chronic and acute inflammatory pain; cited from earlier work.
For test [2], the system named is rat formalin model of persistent pain. As to conditions: cited from earlier work.
Test [3] has as its system animal models of pain. As to conditions: animal models of acute thermal, persistent, inflammatory and neuropathic pain; cited from earlier work.
Test [4] relates to microglial activation. As to conditions: in vitro; cited from earlier work.
Test [5] has as its system osteoclast activity. Conditions: cited from earlier work.
Test [6] relates to ovariectomy-induced bone loss. Conditions: mice, model for post-menopausal osteoporosis; cited from earlier work.
Test [7] relates to apolipoprotein E knockout mice. As to conditions: cited from earlier work.
For test [8], the target named is T1, rat CB2 receptors (Rattus norvegicus, UniProt Q9QZN9).
T1 construct: expressed in transfected cells; membrane preparation
T1 sequence (Q9QZN9 1-360): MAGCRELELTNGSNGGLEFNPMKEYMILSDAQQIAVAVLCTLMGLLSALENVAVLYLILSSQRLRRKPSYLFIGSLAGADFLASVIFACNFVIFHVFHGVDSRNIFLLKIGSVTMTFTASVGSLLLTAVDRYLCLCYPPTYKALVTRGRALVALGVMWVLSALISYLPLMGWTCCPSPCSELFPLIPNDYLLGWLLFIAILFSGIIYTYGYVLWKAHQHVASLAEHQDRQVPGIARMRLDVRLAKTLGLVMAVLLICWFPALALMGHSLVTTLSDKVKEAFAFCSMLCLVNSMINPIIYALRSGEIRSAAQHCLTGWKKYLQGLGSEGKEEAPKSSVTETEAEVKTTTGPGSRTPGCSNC
The experiment in a line: rat CB2 radioligand binding assay. The protocol: (§1) (i) In Vitro Methods—CB2 and CB1 Radioligand Binding Assays:
(§2) The CB1 and CB2 radioligand binding assays described herein are utilized to ascertain the selectivity of compounds of the present application for binding to CB2 relative to CB1 receptors.
(§3) HEK293 cells stably expressing rat CB2 receptors were grown until a confluent monolayer was formed. Briefly, the cells were harvested and homogenized in TE buffer (50 mM Tris-HCl, 1 mM MgCl2, and 1 mM EDTA) using a polytron for 2×10 second bursts in the presence of protease inhibitors, followed by centrifugation at 45,000×g for 20 minutes. The final membrane pellet was re-homogenized in storage buffer (50 mM Tris-HCl, 1 mM MgCl2, and 1 mM EDTA and 10% sucrose) and frozen at −78° C. until used. Saturation binding reactions were initiated by the addition of membrane preparation (protein concentration of 20 μg/well for rat CB2) into wells of a deep well plate containing [^3H]CP-55,940 (120 Ci/mmol, a nonselective CB agonist commercially available from Tocris) in assay buffer (50 mM Tris, 2.5 mM EDTA, 5 mM MgCl2, and 0.5 mg/mL fatty acid free BSA, pH 7.4). After 45 min incubation at 30° C., binding reaction was terminated by the addition of 300 μL/well of cold assay buffer followed by rapid vacuum filtration through a UniFilter-96 GF/C filter plates (pre-soaked in 1 mg/mL BSA for 2 hours). The bound activity was counted in a TopCount using Microscint-20. Saturation experiments were conducted with twelve concentrations of [^3H]CP-55,940 ranging from 0.01 to 8 nM. Competition experiments were conducted with 0.5 nM [^3H]CP-55,940 and five concentrations of displacing ligands selected from the range of 0.01 nM to 10 μM. The addition of 10 μM unlabeled CP-55,940 (Tocris, Ellisville, Mo.) was used to assess nonspecific binding.

In test [9] the target is T2, human CB2 receptors (Homo sapiens, UniProt P34972).
T2 construct: expressed in transfected cells; membrane preparation
T2 sequence (P34972 whole entry): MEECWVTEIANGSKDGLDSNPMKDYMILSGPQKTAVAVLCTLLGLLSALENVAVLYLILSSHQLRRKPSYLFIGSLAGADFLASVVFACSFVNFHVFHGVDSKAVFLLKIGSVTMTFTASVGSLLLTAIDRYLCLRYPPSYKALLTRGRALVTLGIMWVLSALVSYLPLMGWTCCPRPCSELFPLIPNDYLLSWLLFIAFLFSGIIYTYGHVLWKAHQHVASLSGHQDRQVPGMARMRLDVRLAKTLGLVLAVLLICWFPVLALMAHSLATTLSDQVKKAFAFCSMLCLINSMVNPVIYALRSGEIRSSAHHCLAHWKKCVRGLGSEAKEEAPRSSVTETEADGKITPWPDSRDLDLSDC
The experiment in a line: human CB2 radioligand binding assay. The protocol:
as §1, §2
as §3, with “expressing human” for “expressing rat”, “of 5” for “of 20”, “for human” for “for rat”, “After 90” for “After 45”, “concentrations (0.01” for “concentrations of displacing ligands selected from the range of 0.01”, “10 μM) of displacing ligands.” for “10 μM.”

Like-named read-outs stand apart in the source and are kept apart here.

Consider `COc1ccc2c(c1)c(CCN1CCOCC1)c(C)n2C(=O)c1cccc(Cl)c1Cl` [GW405833], for which the “efficacy in pain models” value in [1] is “efficacious”. Turning to `CCCCCCC(C)(C)c1cc(OC)c([C@@H]2C=C(CO)[C@@H]3C[C@H]2C3(C)C)c(OC)c1` [HU-308], the antinociceptive response result in [2] is “elicits an antinociceptive response”. As for `CN1CCCCC1Cn1cc(C(=O)c2cc([N+](=O)[O-])ccc2I)c2ccccc21` (stereo not drawn) [AM-1241], in test [3], the analgesic efficacy entry was “robust analgesic efficacy”.

Turning to SR144528, the “blockade of JWH-133 effects on β-amyloid-induced microglial activation and neurotoxicity” value in [4] was “blocked”. In addition, in test [5], the “effect on osteoclast activity” value was “inhibit”. Besides, the “effect on ovariectomy-induced bone loss” value in test [6] was “reverse”. In addition, the “inhibition of THC effects on atherosclerotic lesions” value in [7] is on record as “inhibited”. For the compound `CCCCn1/c(=N/C(=O)c2cc(C(F)(F)F)ccc2CC(=O)OC(C)(C)C)cc(C(C)(C)C)n1C` [Example 23, tert-butyl[2-({[(3E)-2-butyl-5-tert-butyl-1-methyl-1,2-dihydro-3H-pyrazol-3-ylidene]amino}carbonyl)-4-(trifluoromethyl)phenyl]acetate], the inhibition constant (Ki) came out at 80.2 nM in [8] and 269 nM in test [9] (competition with 0.5 nM [3H]CP-55,940, HEK293 membranes expressing human CB2, read-out: human CB2 binding (Ki)). With `CCCCn1nc(C(C)(C)C)s/c1=N\C(=O)c1cc(C(F)(F)F)ccc1CN1CC[C@H](O)C1` [Example 18, N-[(2Z)-3-butyl-5-tert-butyl-1,3,4-thiadiazol-2(3H)-ylidene]-2-{[(3S)-3-hydroxypyrrolidin-1-yl]methyl}-5-(trifluoromethyl)benzamide], the Ki in test [8] came out at 1.59 nM; in test [9], 14.9 nM. `CCCC(C)(C)c1ccc2c(c1)OC(C)(C)[C@@H]1CC=C(C)C[C@@H]21` [JWH-133]: in test [4], the “effect on β-amyloid-induced microglial activation and neurotoxicity” value is given as “abrogated”. Turning to `CCCCn1nc(C(C)(C)C)s/c1=N\C(=O)c1cc(C(F)(F)F)ccc1CN1CC(C(C)(C)O)C1` [Example 22, N-[(2Z)-3-butyl-5-tert-butyl-1,3,4-thiadiazol-2(3H)-ylidene]-2-{[3-(1-hydroxy-1-methylethyl)azetidin-1-yl]methyl}-5-(trifluoromethyl)benzamide], the figures for the Ki in test [8] and in test [9] were 2.14 nM and 5.33 nM, respectively. In the case of (−)-Δ^9-Tetrahydrocannabinol [THC], the “progression of atherosclerotic lesions” value in test [7] (low doses) was “slowed the progression”. `Cn1c(C(C)(C)C)c/c(=N\C(=O)c2cc(C(F)(F)F)ccc2CCC(C)(C)O)n1CC1CCC1` [Example 7, N-[(3E)-5-tert-butyl-2-(cyclobutylmethyl)-1-methyl-1,2-dihydro-3H-pyrazol-3-ylidene]-2-(3-hydroxy-3-methylbutyl)-5-(trifluoromethyl)benzamide]: the Ki in test [8] turned out to be 17.2 nM; in test [9], 20.8 nM. `Cn1c(C(C)(C)C)c/c(=N\C(=O)c2cc(C(F)(F)F)ccc2CCC(C)(C)O)n1CC1CC1` [Example 4, N-[(3E)-5-tert-butyl-2-(cyclopropylmethyl)-1-methyl-1,2-dihydro-3H-pyrazol-3-ylidene]-2-(3-hydroxy-3-methylbutyl)-5-(trifluoromethyl)benzamide]: the Ki in test [8] is 121 nM; in test [9] it was 151 nM. `Cn1c(C(C)(C)C)c/c(=N\C(=O)c2cc(C(F)(F)F)ccc2/C=C/C(C)(C)O)n1CC1CCC1` [Example 6, N-[(3E)-5-tert-butyl-2-(cyclobutylmethyl)-1-methyl-1,2-dihydro-3H-pyrazol-3-ylidene]-2-[(1E)-3-hydroxy-3-methylbut-1-enyl]-5-(trifluoromethyl)benzamide]: the values for the Ki in test [8] and in test [9] were 3.29 nM and 10.9 nM, respectively.
